Peptide text beside a SMILES is read from it.

Assay [1] addresses T1, δPKC binding to dF1Fo (Rattus norvegicus, UniProt P09215).
T1 construct: with purified rat brain PKC (mixture of PKC isozymes); from tissue; host or cells: PKC from rat brain; F1Fo ATPase holo-enzyme from adult rat cardiac ventricle
In words: PKC overlay binding assay. The settings on record: overlay with purified PKC isozymes, DG/PS; read-out: IC50 for modulation of δPKC-dF1Fo binding.

For assay [2], the target named is T2, δPKC-dF1Fo co-IP (Rattus norvegicus, UniProt P09215).
T2 construct: endogenous in cells; host or cells: neonatal rat cardiac myocytes (NCMs), isolated mitochondria
T2 sequence (P09215 whole entry): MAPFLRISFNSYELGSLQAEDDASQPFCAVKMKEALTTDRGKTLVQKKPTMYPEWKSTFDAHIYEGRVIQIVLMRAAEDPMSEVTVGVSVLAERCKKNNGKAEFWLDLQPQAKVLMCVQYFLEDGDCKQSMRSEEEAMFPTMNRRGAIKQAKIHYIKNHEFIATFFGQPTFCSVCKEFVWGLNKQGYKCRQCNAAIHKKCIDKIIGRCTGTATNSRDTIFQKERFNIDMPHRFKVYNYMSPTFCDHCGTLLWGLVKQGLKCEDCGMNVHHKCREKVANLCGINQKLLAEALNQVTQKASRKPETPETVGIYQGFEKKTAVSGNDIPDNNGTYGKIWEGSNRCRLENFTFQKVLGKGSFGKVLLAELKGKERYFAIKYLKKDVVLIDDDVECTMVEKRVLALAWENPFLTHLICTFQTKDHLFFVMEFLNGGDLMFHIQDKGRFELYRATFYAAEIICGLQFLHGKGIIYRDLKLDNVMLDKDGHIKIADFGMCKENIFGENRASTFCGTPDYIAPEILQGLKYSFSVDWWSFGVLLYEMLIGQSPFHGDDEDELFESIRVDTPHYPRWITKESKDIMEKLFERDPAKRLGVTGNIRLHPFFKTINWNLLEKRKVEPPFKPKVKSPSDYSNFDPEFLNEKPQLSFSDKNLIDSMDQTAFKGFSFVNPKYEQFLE
T2 sequence (P31399 2-161 partner limits assumed): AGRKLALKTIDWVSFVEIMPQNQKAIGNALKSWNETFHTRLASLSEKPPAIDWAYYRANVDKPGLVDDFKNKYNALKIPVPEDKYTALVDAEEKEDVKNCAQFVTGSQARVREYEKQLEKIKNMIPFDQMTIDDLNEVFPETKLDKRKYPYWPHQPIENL
Briefly: δPKC co-immunoprecipitation with dF1Fo in NCM mitochondria after phorbol ester. It counts as cell-based. Particulars: 100 nM 4-β PMA, 20 min, NCMs. As for the experimental part:
FIGS. 1A-1B: Delta protein kinase C (δPKC) co-immunoprecipitates (co-IPs) with the “d” subunit of F1Fo ATP synthase (dF1Fo) following 100 nM 4-β PMA treatment. Neonatal cardiac myocytes (NCMs) were treated with 100 nM 4-α PMA (0 nM in Figure), 3 nM 4-β PMA for 1 hr. or 100 nM 4-β PMA for 20 min. Mitochondria were isolated using Percoll/Optiprep density gradients and then subjected to immunoprecipitations using antisera to dF1Fo. IPs were resolved by […] and transferred onto nitrocellulose paper (NCP) followed by Western blot analyses using antisera against αPKC, δPKC, εPKC and ζPKC. FIG. 1A, representative autoradiographs for each PKC isozyme are shown. FIG. 1B, mean±S.E. densitometry values for three independent myocyte preparations. Asterisks indicate significant differences between 4-α PMA and 3 nM or 100 nM 4-β PMA (p<0.05). # indicates statistically significant differences between 3 and 100 nM 4-β PMA (p<0.05).
Phorbol esters such as 4-β phorbol 12-myristate-13-acetate (4-β PMA), are well known activators of most PKC isozymes and should be useful in determining if one or more PKC isozymes induced effects on the F1Fo complex. […] In FIG. 1, 4-α PMA is shown as “0” concentration and […] values are reported for 3-100 nM concentrations. IPs were next subjected to Western blot analyses with anti-PKC isozyme-selective antisera. […]

The subject of assay [3] is isolated rat hearts, ischemia/reperfusion injury. In words: Infarct size (TTC staining) after ischemia/reperfusion in isolated rat hearts.
Method: Hearts were excised from 2 month-old Sprague-Dawley rats and subjected to Langendorff-mode perfusion with oxygenated Kreb's buffer. Following a 20 min equilibration to attain stable beating hearts either were perfused continuously for 110 minutes (Con) or were subjected to 20 minutes of global no-flow ischemia and then 90 minutes of oxygenated reperfusion (IR). For groups receiving the δPKC-dF1Fo inhibitor or facilitator peptides (complete amino acid sequences shown in FIG. 13) 20 nM concentrations of the peptides were given at the onset of the 90 minute reperfusion period for 20 minutes. At the termination of experimentation atria were removed and ventricles were rapidly washed in chilled Kreb's buffer and partially frozen to facilitate cutting the hearts into sections. […]
Histograms represent mean±S.E. infarction expressed as a percentage of the entire left ventricular area. […]
The effects of the peptides of the present invention on infarct size following IR injury in the Langendorff model was assessed, Hearts were perfused in the absence of peptide, under normoxic conditions for 110 minutes (Con), or were given a 20 minute global, no flow, ischemia exposure followed by normoxic perfusion for 90 minutes. δPKC-dF1Fo modulatory peptides (20 nM) were administered at the onset of reperfusion for 20 minutes. […]
For assay [4], the system named is mitochondrial δPKC levels. In words: Mitochondrial δPKC levels (Western blot) in hearts of streptozotocin-treated rats. Particulars: hearts 6 weeks after STZ injection (50 mg/kg). For orientation: Immunoblotting shows a protein as a band on a membrane.
Assay [5] has as its system myocardial ATP levels. In words: Myocardial ATP levels in hearts of streptozotocin-treated rats. The settings on record: hearts 6 weeks after STZ injection (50 mg/kg).

T1 sequence (P09215 whole entry): as the sequence (P09215 whole entry) above

Usually IC50 stands for the concentration at which inhibition is half-maximal. Consider `CC[C@H](C)[C@H](NC(=O)[C@@H](NC(=O)[C@H](CCCCN)NC(=O)[C@H](CC(C)C)NC(=O)[C@H](C)NC(=O)[C@H](CC(C)C)NC(=O)[C@H](CCCCN)NC(=O)[C@H](CCCNC(=N)N)NC(=O)CNC(=O)[C@H](C)N)[C@@H](C)O)C(=O)N[C@@H](CC(=O)O)C(=O)N[C@@H](Cc1c[nH]c2ccccc12)C(=O)N[C@H](C(=O)N[C@@H](CO)C(=O)N[C@@H](Cc1ccccc1)C(=O)O)C(C)C` [SEQ ID NO: 1, AGRKLALKTIDWVSF] (H-AGRKLALKTIDWVSF-OH; N-terminus and C-terminus assumed), for which the IC50 in assay [1] was about 300 µM.
Consider `CCCCCCCCCCCCCC(=O)O[C@@H]1[C@@H](C)[C@@]2(O)[C@@H](C=C(CO)C[C@]3(O)C(=O)C(C)=C[C@@H]23)[C@@H]2C(C)(C)[C@]12OC(C)=O` [4-β PMA, 4-β phorbol 12-myristate-13-acetate], for which, in assay [2], the “increase of δPKC-dF1Fo co-IP above 3 nM 4-β PMA-induced levels” value was 3.4±0.3 fold.
As for “YGRKKRRQRRR-MLATRALSLIGKRAISTSVC-RVRE YEKQLEKIKNMI-DYKDDDDK (YGRKKRRQRRRMLATRALSLIGKRAISTSVCRVREYEKQLEKIKNMIDYKDDDDK; sequence of mitochondrial-targeted facilitator of dPKC-dF1Fo interaction) [PKC-dF1Fo agonist peptide]”, the enhancement of infarction in assay [3] worked out at 27±3%.
As to `CC[C@H](C)[C@H](NC(=O)[C@H](CCSC)NC(=O)[C@H](CC(N)=O)NC(=O)[C@H](CCCCN)NC(=O)[C@@H](NC(=O)[C@H](CCCCN)NC(=O)[C@H](CCC(=O)O)NC(=O)[C@H](CC(C)C)NC(=O)[C@H](CCC(N)=O)NC(=O)[C@H](CCCCN)NC(=O)[C@H](CCC(=O)O)NC(=O)[C@H](Cc1ccc(O)cc1)NC(=O)[C@H](CCC(=O)O)NC(=O)[C@H](CCCNC(=N)N)NC(=O)[C@@H](NC(=O)[C@@H](N)CCCNC(=N)N)C(C)C)[C@@H](C)CC)C(=O)O` [SEQ ID NO: 2, RVREYEKQLEKIKNMI] (H-RVREYEKQLEKIKNMI-OH; N-terminus and C-terminus assumed), the IC50 in assay [1] is about 300 µM.
Regarding `CN(N=O)C(=O)N[C@H]1C(O)O[C@H](CO)[C@@H](O)[C@@H]1O` (mixture of isomers) [STZ, streptozotocin], in assay [4], the “increase in mitochondrial δPKC levels” value is “greater than 10 fold”. Also, the “decrease of myocardial ATP levels” value in assay [5] turned out to be 2.3±0.1 fold.

The values above are taken from patent US8754051B2, “Peptide modulators of the δPKC interaction with the d subunit of F1Fo ATP synthase/ATPase and uses thereof” (Georgia Regents Research Institute, Inc., priority 2009, dated 2014).
